{"source": "paper PMC7708037", "about": "“Targeting OGG1 arrests cancer cell proliferation by inducing replication stress” (Nucleic Acids Research, 2020)", "key": {"A3 OGG1-shRNA cells": {"tested_on": "A3 OGG1-shRNA cells", "assay": "Off-target evaluation in OGG1 knockdown A3 cells", "assay_type": "cell-based, human", "description": "Figure 4. Anticancer properties overlap between OGG1 loss and OGG1 inhibitors. (A) Viability of T-cell acute […] leukemia cell lines treated for 5 days with the indicated doses TH5487. Data are average ±SD of independent experiments (A3, n = 5; Jurkat, n = 3; MOLT-4, n = 4; CCRF-CEM, n = 3). (B) Relative cell numbers and (C) viability (%) for A3 cells treated for 5 days with 10 μM TH5487. Data are average ±SD of six replicates from three independent experiments. (D) Induction of apoptosis in A3 cells treated for 72 h TH5487 and stained for Annexin V. Data are average ±SD of three independent experiments. (E) A3 cells transfected with shRNA targeting OGG1 were treated with doxycycline for 6 days and stained for Annexin V. Data are average ±SD of two independent experiments. (F) Scheme for recovery experiment in which A3 OGG1-shRNA cells or A3 cells were silenced or inhibited for 6 days with doxycycline (200 nM) or TH5487 (10 μM). […] Statistical significance was determined using unpaired, two-sided t-tests (*P < 0.05, **P < 0.01, ***P < 0.001, ****P < 0.0001, ns, non-significant). […]\nStatistical significance was determined using unpaired, two -sided T-tests (ns, non-significant, *, P<0.05, **, P<0.01, ***, P<0.001 and ****, P<0.0001) . […] D. Comparative bar graph with quantification from two independent Western blots. […]"}, "[1]": {"tested_on": "A3 shNT cells transcriptome", "assay": "RNA-sequencing and Gene Set Enrichment Analysis", "assay_type": "cell-based, human", "conditions": "10 μM, 24 h vs DMSO", "description": "To extract bulk RNA from cells, the pellets were resuspended in 500 μl of TRI Reagent. After 5 min, 100 μl of chloroform was added and the tubes were shaken by hand for one minute. After 15 min incubation, the samples were centrifuged at 12 000 × g for 15 min at 4°C. 300 μl of the aqueous phase were then mixed thoroughly with 300 μl of Isopropanol, 30 μl of 3M Sodium Acetate and 1 μl of Pellet Paint (Merck 69049) and incubated over night at −20°C. The following day, the samples were centrifuged at 20 000 × g g for 30 min and the pellets washed twice with 600 μl of 70% ethanol. After drying, the pellets were resuspended in 15 μl of Elution Buffer and the concentration of RNA was measured using the Qubit RNA High Sensitivity Assay (Thermo Fischer Q32852) according to the manufacturer's instructions.\nAfter diluting the samples, 2 ng of RNA were used as input for the Smart-seq2 RNA-sequencing protocol ([41]) and 50 bp single ends were sequenced on an Illumina HiSeq 3000 sequencer. Reads were mapped to the ENSEMBL human transcriptome GRCh37 using Tophat 2.1.1 to generate the read count matrix.\nDifferential expression analysis was performed with DESeq2 (v. 1.26.0) ([42]). […] For Gene Set Enrichment Analysis only genes with a mean expression >5 normalized counts as determined by DESeq2 were taken into account. […]\nFigure 6. […] Only genes with a mean normalized count >5 were analyzed. […]"}}, "data": [{"smiles": "O=C(Nc1ccc(I)cc1)N1CCC(n2c(=O)[nH]c3c(Br)cccc32)CC1", "note": "[TH5487]", "values": [{"measurement": "Additional toxic effect in combination with doxycycline", "setting": "A3 OGG1-shRNA cells; A3 sh2, 6 days", "value": "additional toxic effect"}, {"measurement": "Additional toxic effect in OGG1 knockdown cells", "setting": "A3 OGG1-shRNA cells; doxycycline 5 days, then additional 48 h with 10 μM", "value": "no significant additional toxic effect"}, {"measurement": "'DNA replication' gene signature (GSEA)", "setting": "[1]", "value": "one of the most downregulated gene signatures"}]}]}
